Experimental data taken from US3956274A, “New compound 6'-deoxy-'-substituted or unsubstituted amino-lividomycins and the production thereof” (Zaidan Hojin Biseibutsu Kagaku Kenkyu Kai, priority 1973, dated 1976).
≈ marks a conversion by molar mass, not a printed value. Like-named read-outs stand apart in the source and are kept apart here.

How the values were obtained:
[1] = tested on: kanamycin-resistant strains; conditions: in words; cited from earlier work
[2] = tested on: Bacillus subtilis NRRL B-558; assay: MIC, standard serial dilution method; type: cell-based; conditions: Bacillus subtilis, NRRLB558; B. subtilis NRRL B-558; nutrient agar, 37°C, 18 hours; read-out: Minimal inhibitory concentration
Protocol: (§1) The minimum inhibitory concentrations (mcg/ml) of 6'-amino-6'-deoxylividomycin B, 6'-deoxy-6'-methylaminolividomycin B and 6'-deoxy-6'-(2-hydroxyethylamino) lividomycin B against various microorganisms were determined according to a standard serial dilution method using nutrient agar incubation medium at 37°C, the estimation being effected after 18 hours incubation except for Mycobacterium smegmalis ATCC 607, in which the estimation being effected after 48 hours incubation. The minimum inhibitory concentrations (mcg/ml) of neomycin and lividomycin B were also determined in the same manner they also for comparison.

[3] = tested on: Escherichia coli K-12 J 5 R 11-2; assay: MIC, standard serial dilution method; type: cell-based; conditions: Escherichia coli, K12J5R112; E. coli K-12 J 5 R 11-2; nutrient agar, 37°C, 18 hours; read-out: Minimal inhibitory concentration
Protocol: as §1

[4] = tested on: Escherichia coli K-12 LA 290 R 56; assay: MIC, standard serial dilution method; type: cell-based; conditions: Escherichia coli, 18 h, read-out: Minimal inhibitory concentration
Protocol: as §1

[5] = tested on: Escherichia coli K-12 ML 1410 R 81; assay: MIC, standard serial dilution method; type: cell-based; conditions: Escherichia coli, 18 h, read-out: Minimal inhibitory concentration
Protocol: as §1

[6] = tested on: Escherichia coli K-12 ML 1410; assay: MIC, standard serial dilution method; type: cell-based; conditions: Escherichia coli, read-out: Minimal inhibitory concentration
Protocol: as §1

[7] = tested on: Escherichia coli K-12 ML 1630; assay: MIC, standard serial dilution method; type: cell-based; conditions: Escherichia coli, K12ML1630; E. coli K-12 ML 1630; nutrient agar, 37°C, 18 hours; read-out: Minimal inhibitory concentration
Protocol: as §1

[8] = tested on: Escherichia coli K-12 R-5; assay: MIC, standard serial dilution method; type: cell-based; conditions: Escherichia coli, K12R5; E. coli K-12 R-5; nutrient agar, 37°C, 18 hours; read-out: Minimal inhibitory concentration
Protocol: as §1

[9] = tested on: Escherichia coli K-12 W 677; assay: MIC, standard serial dilution method; type: cell-based; conditions: Escherichia coli, read-out: Minimal inhibitory concentration
Protocol: as §1

[10] = tested on: Escherichia coli K-12; assay: MIC, standard serial dilution method; type: cell-based; conditions: Escherichia coli, read-out: Minimal inhibitory concentration
Protocol: as §1

[11] = tested on: Escherichia coli NIHJ; assay: MIC, standard serial dilution method; type: cell-based; conditions: Escherichia coli, read-out: Minimal inhibitory concentration
Protocol: as §1

[12] = tested on: Klebsiella pneumoniae PCI 602; assay: MIC, standard serial dilution method; type: cell-based; conditions: Klebsiella pneumoniae, PCI602; K. pneumoniae PCI 602; nutrient agar, 37°C, 18 hours; read-out: Minimal inhibitory concentration
Protocol: as §1

[13] = tested on: Klebsiella pneumoniae type 22 No. 3038; assay: MIC, standard serial dilution method; type: cell-based; conditions: Klebsiella pneumoniae, read-out: Minimal inhibitory concentration
Protocol: as §1

[14] = tested on: Mycobacterium smegmatis ATCC 607; assay: MIC, standard serial dilution method; type: cell-based; conditions: Mycolicibacterium smegmatis, ATCC607, nutrient agar, 37°C, 48 hours, read-out: Minimal inhibitory concentration
Protocol: as §1

[15] = tested on: Proteus rettgeri GN 311; assay: MIC, standard serial dilution method; type: cell-based; conditions: Providencia rettgeri, GN311, nutrient agar, 37°C, 18 hours, read-out: Minimal inhibitory concentration
Protocol: as §1

[16] = tested on: Proteus rettgeri GN 466; assay: MIC, standard serial dilution method; type: cell-based; conditions: Providencia rettgeri, read-out: Minimal inhibitory concentration
Protocol: as §1

[17] = tested on: Pseudomonas aeruginosa 99; assay: MIC, standard serial dilution method; type: cell-based; conditions: read-out: Minimal inhibitory concentration
Protocol: as §1

[18] = tested on: Pseudomonas aeruginosa A 3; assay: MIC, standard serial dilution method; type: cell-based; conditions: Pseudomonas aeruginosa, A3, 18 h, read-out: Minimal inhibitory concentration
Protocol: as §1

[19] = tested on: Pseudomonas aeruginosa No.12; assay: MIC, standard serial dilution method; type: cell-based; conditions: Pseudomonas aeruginosa; P. aeruginosa No.12; nutrient agar, 37°C, 18 hours; read-out: Minimal inhibitory concentration
Protocol: as §1

[20] = tested on: Pseudomonas aeruginosa TI-13-1; assay: MIC, standard serial dilution method; type: cell-based; conditions: Pseudomonas aeruginosa, TI131; P. aeruginosa TI-13-1; nutrient agar, 37°C, 18 hours; read-out: Minimal inhibitory concentration
Protocol: as §1

[21] = tested on: Salmonella typhosa T-63; assay: MIC, standard serial dilution method; type: cell-based; conditions: Salmonella enterica, TYPHOSA, 18 h, read-out: Minimal inhibitory concentration
Protocol: as §1

[22] = tested on: Sarcina lutea PCI 1001; assay: MIC, standard serial dilution method; type: cell-based; conditions: Micrococcus luteus, PCI1001, nutrient agar, 37°C, 18 hours, read-out: Minimal inhibitory concentration
Protocol: as §1

[23] = tested on: Staphylococcus aureus FDA 209 P; assay: MIC, standard serial dilution method; type: cell-based; conditions: Staphylococcus aureus, FDA209; S. aureus FDA 209 P; nutrient agar, 37°C, 18 hours; read-out: Minimal inhibitory concentration
Protocol: as §1

[24] = tested on: Escherichia coli K-12 JR 66/W 677; assay: MIC, standard serial dilution method; type: cell-based; conditions: Escherichia coli, 18 h, read-out: Minimal inhibitory concentration
Protocol: as §1
(§2) In the above table, the mark * denotes the strain is a drug-resistant
(§3) strain of patient-origin.

[25] = tested on: Escherichia coli K-12 LA 290 R 55; assay: MIC, standard serial dilution method; type: cell-based; conditions: Escherichia coli, 18 h, read-out: Minimal inhibitory concentration
Protocol: as §1, §2, §3

[26] = tested on: Escherichia coli K-12 ML 1629; assay: MIC, standard serial dilution method; type: cell-based; conditions: Escherichia coli, K12ML1629; E. coli K-12 ML 1629, drug-resistant strain of patient-origin; nutrient agar, 37°C, 18 hours; read-out: Minimal inhibitory concentration
Protocol: as §1, §2, §3

[27] = tested on: Pseudomonas aeruginosa GN 315; assay: MIC, standard serial dilution method; type: cell-based; conditions: Pseudomonas aeruginosa, read-out: Minimal inhibitory concentration
Protocol: as §1, §2, §3

[28] = tested on: Escherichia coli K-12 LA 290 R 64; assay: MIC, standard serial dilution method; type: cell-based; conditions: Escherichia coli; E. coli K-12 LA 290 R 64; nutrient agar, 37°C, 18 hours; read-out: Minimal inhibitory concentration
Protocol: as §1

[29] = K12W677, E. coli K-12 W 677, nutrient agar, 37°C, 18 hours
[30] = K12, E. coli K-12, nutrient agar, 37°C, 18 hours
[31] = E. coli NIHJ, nutrient agar, 37°C, 18 hours
[32] = GN466, Proteus rettgeri GN 466, nutrient agar, 37°C, 18 hours
[33] = GN315, P. aeruginosa GN 315, drug-resistant strain of patient-origin, nutrient agar, 37°C, 18 hours
[34] = Pseudomonas aeruginosa, P. aeruginosa 99, nutrient agar, 37°C, 18 hours

NCC1CCC(N)C(OC2C(N)CC(N)C(OC3OC(CO)C(O)C(N)C3O)C2O)O1 (centres unmarked) [3', 4'-dideoxykanamycin B]
activity against kanamycin-resistant strains [1]: actually effective

NC[C@@H]1CC[C@@H](N)[C@@H](O[C@H]2[C@H](O)[C@@H](O)[C@H](N)C[C@@H]2N)O1 [3', 4'-dideoxyneamine]
activity against kanamycin-resistant strains [1]: actually effective

NCC1OC(OC2C(N)CC(N)C(OC3OC(CO)C(O)C(N)C3O)C2O)C(O)CC1O (centres unmarked) [3'-Deoxykananmycin, 3'-deoxykanamycin]
activity against kanamycin-resistant strains [1]: actually effective

NC[C@@H]1O[C@H](O[C@H]2[C@@H](O)[C@H](O[C@@H]3[C@@H](O)[C@H](N)C[C@H](N)[C@H]3O[C@H]3O[C@H](CN)[C@@H](O)C[C@H]3N)O[C@@H]2CO)[C@H](N)[C@@H](O)[C@@H]1O [ALVB, 6'-amino-6'-deoxylividomycin B]
MIC [2]: < 0.2 µg/mL
MIC [3]: 25 µg/mL (≈ 41.8 µM)
MIC [4]: 0.39 µg/mL (≈ 0.651 µM)
MIC [5]: 100 µg/mL (≈ 167 µM)
MIC ([6]; K12ML1410, 18 h): 1.56 µg/mL (≈ 2.61 µM)
MIC [7]: 50 µg/mL (≈ 83.5 µM)
MIC [8]: 0.39 µg/mL (≈ 0.651 µM)
MIC [9, 29]: 0.78 µg/mL (≈ 1.3 µM)
MIC [10, 30]: 0.78 µg/mL (≈ 1.3 µM)
MIC [11, 31]: 0.78 µg/mL (≈ 1.3 µM)
MIC [12]: 0.78 µg/mL (≈ 1.3 µM)
MIC ([13]; TYPE22NO.3038, 18 h): 1.56 µg/mL (≈ 2.61 µM)
MIC [14]: < 0.2 µg/mL
MIC [15]: 25 µg/mL (≈ 41.8 µM)
MIC [16, 32]: 3.12 µg/mL (≈ 5.21 µM)
MIC ([17]; Pseudomonas aeruginosa, 99, 18 h): 1.56 µg/mL (≈ 2.61 µM)
MIC [18]: 1.56 µg/mL (≈ 2.61 µM)
MIC [19]: 0.78 µg/mL (≈ 1.3 µM)
MIC [20]: 100 µg/mL (≈ 167 µM)
MIC [21]: 0.39 µg/mL (≈ 0.651 µM)
MIC [22]: 0.78 µg/mL (≈ 1.3 µM)
MIC [23]: < 0.2 µg/mL
MIC [24]: 1.56 µg/mL (≈ 2.61 µM)
MIC [25]: 1.56 µg/mL (≈ 2.61 µM)
MIC [26]: 50 µg/mL (≈ 83.5 µM)
MIC [27, 33]: 25 µg/mL (≈ 41.8 µM)

NC[C@@H]1O[C@H](O[C@H]2[C@@H](O)[C@H](O[C@@H]3[C@@H](O)[C@H](N)C[C@H](N)[C@H]3O[C@H]3O[C@H](CNCCO)[C@@H](O)C[C@H]3N)O[C@@H]2CO)[C@H](N)[C@@H](O)[C@@H]1O [HALVB, 6'-deoxy-6'-(2-hydroxyethylamino) lividomycin B]
MIC [2]: < 0.2 µg/mL
MIC [3]: > 100 µg/mL
MIC [4]: 0.78 µg/mL (≈ 1.21 µM)
MIC [28]: 1.56 µg/mL (≈ 2.43 µM)
MIC [5]: > 100 µg/mL
MIC ([6]; K12ML1410, E. coli K-12 ML 1410, nutrient agar, 37°C, 18 hours): 3.12 µg/mL (≈ 4.85 µM)
MIC [7]: > 100 µg/mL
MIC [8]: 1.56 µg/mL (≈ 2.43 µM)
MIC ([9]; K12W677, 18 h): 1.56 µg/mL (≈ 2.43 µM)
MIC ([10]; K12, 18 h): 1.56 µg/mL (≈ 2.43 µM)
MIC [11, 31]: 3.12 µg/mL (≈ 4.85 µM)
MIC [12]: 0.78 µg/mL (≈ 1.21 µM)
MIC ([13]; TYPE22NO.3038, K. pneumoniae type 22 No. 3038, nutrient agar, 37°C, 18 hours): 3.12 µg/mL (≈ 4.85 µM)
MIC [14]: < 0.2 µg/mL
MIC [15]: 50 µg/mL (≈ 77.8 µM)
MIC ([16]; GN466, 18 h): 6.25 µg/mL (≈ 9.72 µM)
MIC [17, 34]: 25 µg/mL (≈ 38.9 µM)
MIC [18]: 6.25 µg/mL (≈ 9.72 µM)
MIC [19]: 0.78 µg/mL (≈ 1.21 µM)
MIC [20]: > 100 µg/mL
MIC [21]: 1.56 µg/mL (≈ 2.43 µM)
MIC [22]: 25 µg/mL (≈ 38.9 µM)
MIC [23]: 0.39 µg/mL (≈ 0.607 µM)
MIC [24]: 6.25 µg/mL (≈ 9.72 µM)
MIC [25]: 1.56 µg/mL (≈ 2.43 µM)
MIC [26]: > 100 µg/mL
MIC [27, 33]: 12.5 µg/mL (≈ 19.4 µM)

CNC[C@H]1O[C@H](O[C@H]2[C@H](O[C@@H]3O[C@H](CO)[C@@H](O[C@H]4O[C@@H](CN)[C@@H](O)[C@H](O)[C@H]4N)[C@H]3O)[C@@H](O)[C@H](N)C[C@@H]2N)[C@H](N)C[C@@H]1O [MALVB, 6'-deoxy-6'-methylaminolividomycin B]
MIC [2]: < 0.2 µg/mL
MIC [3]: 100 µg/mL (≈ 163 µM)
MIC [4]: 1.56 µg/mL (≈ 2.55 µM)
MIC [28]: 0.78 µg/mL (≈ 1.27 µM)
MIC [5]: > 100 µg/mL
MIC ([6]; K12ML1410, 18 h): 3.12 µg/mL (≈ 5.09 µM)
MIC [7]: > 100 µg/mL
MIC [8]: 1.56 µg/mL (≈ 2.55 µM)
MIC [9, 29]: 0.78 µg/mL (≈ 1.27 µM)
MIC [10, 30]: 0.78 µg/mL (≈ 1.27 µM)
MIC ([11]; 18 h): 3.12 µg/mL (≈ 5.09 µM)
MIC [12]: 0.78 µg/mL (≈ 1.27 µM)
MIC ([13]; TYPE22NO.3038, 18 h): 1.56 µg/mL (≈ 2.55 µM)
MIC [14]: < 0.2 µg/mL
MIC [15]: 25 µg/mL (≈ 40.8 µM)
MIC [16, 32]: 12.5 µg/mL (≈ 20.4 µM)
MIC [17, 34]: 25 µg/mL (≈ 40.8 µM)
MIC [18]: 3.12 µg/mL (≈ 5.09 µM)
MIC [19]: 0.78 µg/mL (≈ 1.27 µM)
MIC [20]: > 100 µg/mL
MIC [21]: 0.78 µg/mL (≈ 1.27 µM)
MIC [22]: 6.25 µg/mL (≈ 10.2 µM)
MIC [23]: < 0.2 µg/mL
MIC [24]: 3.12 µg/mL (≈ 5.09 µM)
MIC [25]: 1.56 µg/mL (≈ 2.55 µM)
MIC [26]: > 100 µg/mL
MIC ([27]; GN315, 18 h): 3.12 µg/mL (≈ 5.09 µM)
